What was measured:
[1] = test system: supercoiled pUC19 plasmid DNA; assay: In vitro condensation assay of Mre11 (fluorescence microscopy); format: biochemical
Protocol: Fig. 1 Mre11 and the MRX complex assemble DNA-dependent condensates in vitro. a, c Effect of the presence of plasmid DNA on condensation of (a) Alexa488-labeled Mre11 (n = 11 and 9 fields of view for reactions without and with DNA, respectively) and (c) eGFP-tagged MRX (n = 11 (- DNA) and 9 ( + DNA)). Experiments were performed without PEG. b, d Effect of DNase I, in the absence of PEG, on (b) Mre11 (n = 9 (no treatment) and 11 (DNase I)) and (d) MRX (n = 9 (no treatment) and 11 (DNase I)) condensates. Condensates were pre-assembled for 20 min with 5.7 nM pUC19 prior to challenge. Quantification represents total foci intensity (green) in a field of view and total number of foci per 1000 µm^2 (magenta). Foci intensity is normalized to the mean intensity of samples with DNA for (a, c) and untreated samples for (b, d). […] Quantification represents total foci intensity (green) in a field of view (normalized to the mean of + PEG images) and total number of foci per 1000 µm^2 (magenta). […]
Fig. 2 The C-terminal IDR of Mre11 is required for condensation. a AlphaFold2 predicted model of Mre11 (AF-P32829-F1-v4). […] Quantification represents total fluorescence intensity (green) in a field of view and total number of foci per 1000 µm^2 (magenta). […]

pUC19 plasmid substrate = assay: Gel shift assay, plasmid DNA binding; conditions: 1 nM pUC19; reduced-mobility complexes (supershift) at higher concentration
Protocol: Proteins were diluted to their appropriate working concentrations in their respective storage buffers. […] Reactions were assembled at 30 °C for 30 mins and resolved in a 1% agarose (SeaKem LE Agarose, Lonza) at 60 V for 120 mins at 4 °C. Gels were stained with SYBR Gold Nucleic Acid Gel Stain (S11497, Invitrogen) for 40 mins and visualized with Amersham Typhoon biomolecular imager (Cytiva).

Mer2 condensates = assay: Colocalization of fluorescently-labeled Mer2 and Mre11 condensates; format: binding, Saccharomyces cerevisiae; conditions: condensates assembled separately on DNA then incubated together
Protocol: Fig. 4 Mer2 recruits Mre11 during meiosis. a Effect of 1,6-hexanediol treatment on meiotic Mre11^myc foci visualized by immunofluorescence analysis of yeast nuclear spreads 4 hours after transfer to SPM. […] At least 22 tetrads were dissected for each strain (n ≥ 88 spores). e Quantification of sub-population of cells showing discrete Mre11 foci and aggregated Mre11 foci in indicated strains. Images used for analysis were from the same experiments in (b) and (d). f Colocalization of fluorescently-labeled Mer2 with wild-type or truncated Mre11. […] The number of images analyzed for each sample were WT (n = 11), Mre11^Δ10-270 (n = 13), Mre11^Δ290-472 (n = 15), Mre11^ΔIDR (n = 10), Mre11^ΔC49 (n = 13). Error bars represent mean ± SD from the indicated (n) fields of view. p-values compared to Mre11-WT are: Mre11^Δ10-270 (0.006), Mre11^Δ290-472 (0.0003), Mre11^ΔIDR (<0.0001), Mre11^ΔC49 (<0.0001). g Colocalization of fluorescently-labeled Mre11-C49 and Mer2. Condensates were assembled by mixing 800 nM of ^mScarletMre11-C49 and 200 nM of ^eGFPMer2 for 30 min prior to imaging. […]
Proteins were diluted to a 10 × stock of their appropriate working concentrations in their respective storage buffers. […] Images were analyzed with ImageJ using a custom-made script. […] Masked foci were counted, and the intensity inside the focus mask was integrated. […] Data were analyzed using Graphpad Prism 10.4.0.

Substance: Mre11: full-length yeast Mre11 nuclease, recombinant from Sf9 cells
- Condensate formation (in words) ([1]; in the presence of plasmid DNA): form large clusters visible by fluorescence microscopy
- Protein concentration above which foci intensity steeply increases ([1]; protein titration, plasmid DNA, 5% PEG): above 200 nM
- Protein concentration up to which fast-migrating complexes form (pUC19 plasmid substrate): ~25 nM
- Colocalization with Mer2 condensates (in words) (Mer2 condensates): nearly absolute colocalization
